Assay results from US20210121426A1, “BLOOD PURIFICATION BY ALKALINIZING AGENT” (TOHOKU UNIVERSITY, priority 2017, published 2021).
Marks after values point to notes of the source that are not given here.

Columns and labels:
cystatin C = assay: Human clinical trial: cystatin C (colloidal gold agglutination method); assay type: in vivo
Procedure: (§1) 1. […] Patients were assigned to each group so that age, sex, presence of diabetes, and eGFR were not biased. Each group was treated according to the “CKD medical care guide-summary of treatment” (hereinafter referred to as standard treatment).
(§2) An alkalinizing agent was not administered to the control group. […] A pH of early morning urine was controlled over time so that the dosage could be increased up to 6 tablets, 3 times a day (morning, noon, evening) as needed according to the discretion of the physician in cases where a pH of early morning urine was less than pH 6.5. To the group B, 3 tablets a day in which each tablet contained 500 mg of sodium bicarbonate were orally administered 3 times a day (morning, noon, evening) for 24 weeks. A pH of early morning urine was controlled over time so that the dosage could be increased up to 6 tablets, 3 times a day (morning, noon, evening) as needed according to the discretion of the physician in cases where a pH of early morning urine was less than pH 6.5.
(§3) Early morning urine and blood were collected before the start of administration, and 6 weeks, 12 weeks, and 24 weeks after the start of administration, and each specimen was stored at −80° C. Methods used in the present field for indoxyl sulfate, p-cresyl sulfate, phenylacetyl-L-glutamine, hippuric acid, and argininosuccinic acid in urine and blood (Sato, E., et. al., Metabolic alteration by indoxyl sulfate in skeletal muscle induce uremic sarcopenia in chronic kidney disease., Sci Rep. 2016 Nov. 10; 6:36618. doi: 10.1038/srep36618, and the like) were referred to, and quantitative analysis was performed using the following liquid chromatography triple quadrupole mass spectrometer (LC-MS/MS).
In addition, the amount of urinary β2-microglobulin was measured by latex agglutination method using the LZ test “Eiken” β2-M and LZ-β2-M standard U “Eiken” (Eiken Chemical Co., Tokyo, Japan). Furthermore, the amount of cystatin C in the serum was measured by a colloidal gold agglutination method using Nescoat GC Cystatin C (Nm) (Alfresa Pharma, Osaka, Japan).
(§4) For statistical analysis, the Mann-Whitney test was used for comparison between groups, and the Wilcoxon test was used for comparison of changes over time. The Pearson test was used for correlation.

argininosuccinic acid = assay: Human clinical trial in CKD patients: argininosuccinic acid in plasma and early morning urine (LC-MS/MS); assay type: in vivo; parameters: key to Influence on concentration of ASA / Influence on ASA U/P ratio: Excellent effects: ◯; Poor effects: X; No significant difference: —; (◯): whether or not there is an effect of promoting excretion of indoxyl sulfate into the urine cannot be determined
Procedure: as §1, §2, §3
For LC, NANOSPACE SI-2 (manufactured by Shiseido) was used, and […] MGM was selected as the analytical column.
For MS, TSQ Quantiva (manufactured by Thermo Fisher Scientific Co., Ltd.) was used, and five compounds were ionized in the negative mode and detected using the Selected Reaction Monitoring method. The quantitative value was calculated using a calibration curve prepared with a standard solution of each compound.
as §4
Then, the average value and SD of each group were calculated for (i) to (ix) above. For each of (iv) to (ix) above, the average value and SD of each group were calculated for all data of 6 weeks, 12 weeks, and 24 weeks after the start of administration in each group.

indoxyl sulfate = assay: Urine indoxyl sulfate (IS) corrected by urinary specific gravity; assay type: in vivo, human
Excerpt: (§5) Medical Examination, Vol. 44, No. 1, 1995, pages 79-83 by Tetsuo Aoki et al. was referred to. A urinary specific gravity 1.022 was converted into a reference value.
(§6) Specific gravity correction value (unit/1.022·UG)=actual measurement value×(1.022−1.000)/(specific gravity value−1.000)

phenylacetyl-L-glutamine = assay: Urine phenylacetyl-L-glutamine (PAG) corrected by urinary specific gravity; assay type: in vivo, human
Excerpt: as §5, §6

[1] = 0 W, before the start of administration
[2] = 6-24 W, all data of 6, 12 and 24 weeks

Structure (SMILES): O=C([O-])O.[Na+] [Bicarbonate, sodium bicarbonate]
- Plasma Cystatine C (cystatin C; [1]): 1.165 ± 0.296 mg/L
- Plasma Cystatine C (cystatin C; [2]): 1.154 ± 0.278 mg/L
- Plasma Cystatine C (cystatin C; 6 W): 1.171 ± 0.281 mg/L
- Plasma Cystatine C (cystatin C; 12 W): 1.151 ± 0.295 mg/L
- Plasma Cystatine C (cystatin C; 24 W): 1.141 ± 0.275 mg/L
- influence on the function of glomeruli (cystatin C; from cystatin C, Table 8): no influence
- Arginino Succinic Acid-Urine/Plasma ratio (argininosuccinic acid; [1]): 3.82 ± 4.93
- Plasma Arginino Succinic Acid (argininosuccinic acid; [1]): 1178 ± 655 ng/mL
- Urine Arginino Succinic Acid (early morning urine) (argininosuccinic acid; [1]): 2911 ± 1691 ng/mL
- ASA - Urine/Plasma ratio, change from week 0 (argininosuccinic acid; [2]): 1.15 ± 7.87
- Arginino Succinic Acid-Urine/Plasma ratio (argininosuccinic acid; [2]): 4.97 ± 7.98
- Plasma Arginino Succinic Acid (argininosuccinic acid; [2]): 1327 ± 1416 ng/mL
- Plasma Arginino Succinic Acid, change from week 0 (argininosuccinic acid; [2]): 148.9 ± 1134 ng/mL
- Urine Arginino Succinic Acid (early morning urine) (argininosuccinic acid; [2]): 3071 ± 2386 ng/mL
- Urine Arginino Succinic Acid, change from week 0 (argininosuccinic acid; [2]): 160.2 ± 1756 ng/mL
- ASA - Urine/Plasma ratio, change from week 0 (argininosuccinic acid; 6 W): 1.93 ± 7.90
- Arginino Succinic Acid-Urine/Plasma ratio (argininosuccinic acid; 6 W): 5.75 ± 9.80
- Plasma Arginino Succinic Acid (argininosuccinic acid; 6 W): 1245 ± 748 ng/mL
- Plasma Arginino Succinic Acid, change from week 0 (argininosuccinic acid; 6 W): 66.5 ± 565.5 ng/mL
- Urine Arginino Succinic Acid (early morning urine) (argininosuccinic acid; 6 W): 3346 ± 2636 ng/mL
- Urine Arginino Succinic Acid, change from week 0 (argininosuccinic acid; 6 W): 434.7 ± 1299 ng/mL
- effect of excretion of argininosuccinic acid from blood into urine (argininosuccinic acid; 6 to 24 weeks, urine/plasma ratio): more strongly recognized
- ASA - Urine/Plasma ratio, change from week 0 (argininosuccinic acid; 12 W): −1.01 ± 4.47
- Arginino Succinic Acid-Urine/Plasma ratio (argininosuccinic acid; 12 W): 2.81 ± 1.86
- Plasma Arginino Succinic Acid (argininosuccinic acid; 12 W): 1576 ± 2160 ng/mL
- Plasma Arginino Succinic Acid, change from week 0 (argininosuccinic acid; 12 W): 397.7 ± 1733 ng/mL
- Urine Arginino Succinic Acid (early morning urine) (argininosuccinic acid; 12 W): 2647 ± 2123 ng/mL
- Urine Arginino Succinic Acid, change from week 0 (argininosuccinic acid; 12 W): -264.1 ± 1491 ng/mL
- ASA - Urine/Plasma ratio, change from week 0 (argininosuccinic acid; 24 W): 2.54 ± 10.20^a
- Arginino Succinic Acid-Urine/Plasma ratio (argininosuccinic acid; 24 W): 6.36 ± 9.60
- Plasma Arginino Succinic Acid (argininosuccinic acid; 24 W): 1160 ± 977 ng/mL
- Plasma Arginino Succinic Acid, change from week 0 (argininosuccinic acid; 24 W): -17.6 ± 776.9 ng/mL
- Urine Arginino Succinic Acid (early morning urine) (argininosuccinic acid; 24 W): 3221 ± 2466 ng/mL
- Urine Arginino Succinic Acid, change from week 0 (argininosuccinic acid; 24 W): 309.9 ± 2335 ng/mL
- Influence on concentration of ASA (argininosuccinic acid; Plasma, comparison with Cont): —
- Influence on concentration of ASA (argininosuccinic acid; Plasma, comparison with reference drug): —
- Influence on ASA U/P ratio (argininosuccinic acid; comparison with Cont): —
- Influence on ASA U/P ratio (argininosuccinic acid; comparison with reference drug): —
- Influence on concentration of ASA (argininosuccinic acid; Urine, comparison with Cont): —
- Influence on concentration of ASA (argininosuccinic acid; Urine, comparison with reference drug): —
- Urine IS, specific gravity corrected (indoxyl sulfate; 6-24 W, all data): 76.7 ± 38.0 μg · mL^−1/1.022 · UG
- Urine IS, specific gravity corrected, % Relative value vs week 0 (indoxyl sulfate; 6-24 W, all data): 89 ± 45%
- Urine IS, specific gravity corrected, difference vs week 0 (indoxyl sulfate; 6-24 W, all data): −15.9 ± 34.4 μg · mL^−1/1.022 · UG
- Urine IS, specific gravity corrected (indoxyl sulfate; 6 W): 83.3 ± 41.9 μg · mL^−1/1.022 · UG
- Urine IS, specific gravity corrected, % Relative value vs week 0 (indoxyl sulfate; 6 W): 95 ± 30%
- Urine IS, specific gravity corrected, difference vs week 0 (indoxyl sulfate; 6 W): −9.3 ± 27.7 μg · mL^−1/1.022 · UG
- Urine IS, specific gravity corrected, % Relative value vs week 0 (indoxyl sulfate; 12 W): 77 ± 42%
- Urine IS, specific gravity corrected, difference vs week 0 (indoxyl sulfate; 12 W): −27.0 ± 32.9^ μg · mL^−1/1.022 · UG
- Urine IS, specific gravity corrected (indoxyl sulfate; 24 W): 81.1 ± 41.6 μg · mL^−1/1.022 · UG
- Urine IS, specific gravity corrected, % Relative value vs week 0 (indoxyl sulfate; 24 W): 95 ± 59%
- Urine IS, specific gravity corrected, difference vs week 0 (indoxyl sulfate; 24 W): −11.4 ± 40.8 μg · mL^−1/1.022 · UG
- Urine PAG, specific gravity corrected (phenylacetyl-L-glutamine; 0 W): 203.6 ± 169.1 μg · mL^−1/1.022 · UG
- Urine PAG, specific gravity corrected (phenylacetyl-L-glutamine; 6-24 W, all data): 162.0 ± 182.5 μg · mL^−1/1.022 · UG
- Urine PAG, specific gravity corrected, % Relative value vs week 0 (phenylacetyl-L-glutamine; 6-24 W, all data): 87 ± 60%
- Urine PAG, specific gravity corrected, difference vs week 0 (phenylacetyl-L-glutamine; 6-24 W, all data): −41.6 ± 126.8 μg · mL^−1/1.022 · UG
- Urine PAG, specific gravity corrected (phenylacetyl-L-glutamine; 6 W): 202.9 ± 260.9 μg · mL^−1/1.022 · UG
- Urine PAG, specific gravity corrected, % Relative value vs week 0 (phenylacetyl-L-glutamine; 6 W): 97 ± 71%
- Urine PAG, specific gravity corrected, difference vs week 0 (phenylacetyl-L-glutamine; 6 W): −0.7 ± 162.0 μg · mL^−1/1.022 · UG
- Urine PAG, specific gravity corrected, % Relative value vs week 0 (phenylacetyl-L-glutamine; 12 W): 76 ± 60%
- Urine PAG, specific gravity corrected, difference vs week 0 (phenylacetyl-L-glutamine; 12 W): −67.6 ± 91.9 ^ μg · mL^−1/1.022 · UG
- Urine PAG, specific gravity corrected (phenylacetyl-L-glutamine; 24 W): 147.1 ± 116.4 μg · mL^−1/1.022 · UG
- Urine PAG, specific gravity corrected, % Relative value vs week 0 (phenylacetyl-L-glutamine; 24 W): 88 ± 49%
- Urine PAG, specific gravity corrected, difference vs week 0 (phenylacetyl-L-glutamine; 24 W): −56.5 ± 113.7 μg · mL^−1/1.022 · UG
